In US20260085062A1, “NOVEL COMPOUNDS AS CK2 INHIBITORS” (Cambridge Enterprise Limited, priority 2022, published 2026):

Columns and labels:
[1] = target: T1, CK2α (Homo sapiens, UniProt P68400); assay: Biochemical assay for inhibitors of CK2α kinase activity (ADP-Glo); details: 0.2 nM CK2α, 50 μM peptide substrate, 15 μM ATP, read-out: Assay 1: CK2α Enzyme IC50
T1 construct: CK2α (residues 2-329) was produced in Escherichia coli BL21 (DE3) for kinase activity screening; His6 (N, cleaved yes); made in house; host or cells: Escherichia coli BL21 (DE3)
T1 sequence (P68400 2-329): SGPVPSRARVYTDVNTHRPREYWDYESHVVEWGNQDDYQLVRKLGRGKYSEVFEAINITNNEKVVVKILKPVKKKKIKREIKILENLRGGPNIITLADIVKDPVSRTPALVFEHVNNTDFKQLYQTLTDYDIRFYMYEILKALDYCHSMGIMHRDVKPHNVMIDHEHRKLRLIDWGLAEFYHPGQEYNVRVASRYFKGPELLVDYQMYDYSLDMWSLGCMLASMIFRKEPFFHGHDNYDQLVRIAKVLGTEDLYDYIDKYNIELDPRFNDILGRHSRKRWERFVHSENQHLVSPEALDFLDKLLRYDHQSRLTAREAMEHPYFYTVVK

[2] = target: T2, CLK2 (Homo sapiens, UniProt P49760); assay: Biochemical assay for inhibitors of CLK2 kinase activity (ADP-Glo); details: 20 nM CLK2, 50 μM peptide substrate, 100 μM ATP, read-out: Assay 2: CLK2 Enzyme IC50
T2 construct: purchased Carna Biosciences 04-127
T2 sequence (P49760 whole entry): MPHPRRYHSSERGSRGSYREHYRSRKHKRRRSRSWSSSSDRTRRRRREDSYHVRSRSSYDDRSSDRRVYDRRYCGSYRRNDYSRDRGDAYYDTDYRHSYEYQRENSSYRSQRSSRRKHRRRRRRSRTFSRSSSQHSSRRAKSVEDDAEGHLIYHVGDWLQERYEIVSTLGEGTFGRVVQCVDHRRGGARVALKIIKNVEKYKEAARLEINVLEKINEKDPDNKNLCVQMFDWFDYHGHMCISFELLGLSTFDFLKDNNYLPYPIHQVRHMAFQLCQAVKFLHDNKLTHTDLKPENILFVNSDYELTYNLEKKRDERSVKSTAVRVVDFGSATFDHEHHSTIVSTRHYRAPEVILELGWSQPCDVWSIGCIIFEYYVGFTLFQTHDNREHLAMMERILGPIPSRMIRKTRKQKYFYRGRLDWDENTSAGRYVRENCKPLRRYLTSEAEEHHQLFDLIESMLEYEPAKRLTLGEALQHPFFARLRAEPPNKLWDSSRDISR

[3] = target: T3, intracellular CK2α (Homo sapiens, UniProt P19784); assay: Cell-based NanoBRET assay for inhibitor binding to intracellular CK2α; details: HCT116 cells transiently transfected with CSNK2A2-NanoLuc fusion vector; Tracer K-5; 2 h; read-out: Assay 3: NanoBRET ™ assay for binding to intracellular CK2α
T3 construct: host or cells: HCT116 (ATCC CCL-247)
T3 sequence (P19784 whole entry, the tested form may be a part): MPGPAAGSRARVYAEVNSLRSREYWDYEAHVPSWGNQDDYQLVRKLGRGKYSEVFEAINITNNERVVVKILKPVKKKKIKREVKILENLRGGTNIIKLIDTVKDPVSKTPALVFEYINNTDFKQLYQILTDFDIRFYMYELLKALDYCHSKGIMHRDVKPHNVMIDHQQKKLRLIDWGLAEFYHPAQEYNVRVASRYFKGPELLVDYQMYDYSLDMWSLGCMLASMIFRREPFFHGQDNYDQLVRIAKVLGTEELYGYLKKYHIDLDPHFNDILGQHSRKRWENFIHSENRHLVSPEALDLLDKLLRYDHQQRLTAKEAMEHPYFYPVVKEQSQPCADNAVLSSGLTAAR
Procedure, shortened: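 Living cells expressing NanoLuc-CK2α fusion were given a fixed tracer concentration, and compounds competitively displaced the reversibly bound tracer. Donor (450 nm) and acceptor (610 or 630 nm) emissions were read; BRET ratio = (acceptor/donor)×1,000, giving apparent intracellular affinity.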

SMILES | IC50 [1] [nM] | IC50 [2] [nM] | IC50 [3] [nM]
OCCOc1cc(CNC2CC(COCCOc3cc(-c4cnnc(O)c4)cc4[nH]ncc34)C2)cc(OC(F)(F)F)c1 (stereo not drawn) [Example 199, 5-(4-(2-((3-((3-(2-hydroxyethoxy)-5-(trifluoromethoxy)benzyl)amino)cyclobutyl)methoxy)ethoxy)-1H-indazol-6-yl)pyridazin-3-ol] | 21.5 | 1210 | 1940
FC(F)(F)Oc1ccc(CNCCCOCCCOc2cc(-n3cnnc3)cc3[nH]ncc23)cc1Cl [Example 69, 3-(3-((6-(4H-1,2,4-triazol-4-yl)-1H-indazol-4-yl)oxy)propoxy)-N-(3-chloro-4-(trifluoromethoxy)benzyl)propan-1-amine] | 46.6 | 688 | 2850
COC(=O)c1cc(NCCOCCCCNCc2cc3cc(C(F)(F)F)ccc3[nH]2)c2cn[nH]c2c1 [Example 84, methyl4-((2-(4-(((5-(trifluoromethyl)-1H-indol-2-yl)methyl)amino)butoxy)ethyl)amino)-1H-indazole-6-carboxylate] | 395 | 10500 | 36500
O=C(O)CCc1cc(NCCOCCCCNCc2cc3cc(C(F)(F)F)ccc3[nH]2)c2cn[nH]c2c1 [Example 89, 3-(4-((2-(4-(((5-(trifluoromethyl)-1H-indol-2-yl)methyl)amino)butoxy)ethyl)amino)-1H-indazol-6-yl)propanoic acid] | > 1000 | 18400 | > 50000
FC(F)(F)c1ccc2[nH]c(CNCCCCOCCNc3cc(-n4cnnc4)cc4[nH]ncc34)cc2c1 [Example 49, 6-(4H-1,2,4-triazol-4-yl)-N-(2-(4-(((5-(trifluoromethyl)-1H-indol-2-yl)methyl)amino)butoxy)ethyl)-1H-indazol-4-amine] | 0.44 | 90.5 | 106
Fc1cc(CNCCCCOCCNc2cc(-c3ccncc3)c(Cl)c3[nH]ncc23)cc(F)c1OC(F)(F)F [Example 166, 7-chloro-N-(2-(4-((3,5-difluoro-4-(trifluoromethoxy)benzyl)amino)butoxy)ethyl)-6-(pyridin-4-yl)-1H-indazol-4-amine] | 21.3 | 783 | 2670
N#CCc1cc(CNCCCCOC2CN(c3cc(-c4ccnnc4)cc4[nH]ncc34)C2)cc(OC(F)(F)F)c1 [Example 134, 2-(3-(((4-((1-(6-(pyridazin-4-yl)-1H-indazol-4-yl)azetidin-3-yl)oxy)butyl)amino)methyl)-5-(trifluoromethoxy)phenyl)acetonitrile] | 5.25 | 2680 | 809
O=C(CCNCc1ccc(OC(F)(F)F)c(Cl)c1)NCCCNc1cc(-c2ncns2)cc2[nH]ncc12 [Example 183, N-(3-((6-(1,2,4-thiadiazol-5-yl)-1H-indazol-4-yl)amino)propyl)-3-((3-chloro-4-(trifluoromethoxy)benzyl)amino)propanamide] | 2.39 | 907 | 145
FC(F)(F)c1ccc2[nH]c(CNCCCCOCCNc3cc(-c4ccnnc4)cc4[nH]nnc34)cc2c1 [Example 100, 6-(pyridazin-4-yl)-N-(2-(4-(((5-(trifluoromethyl)-1H-indol-2-yl)methyl)amino)butoxy)ethyl)-1H-benzo[d][1,2,3]triazol-4-amine] | 22.3 | 22900 | 1410
FC(F)(F)Oc1ccc(CNCCCCOC2CN(c3cc(-c4ccnnc4)cc4[nH]ncc34)C2)cc1Cl [Example 107, N-(3-chloro-4-(trifluoromethoxy)benzyl)-4-((1-(6-(pyridazin-4-yl)-1H-indazol-4-yl)azetidin-3-yl)oxy)butan-1-amine] | 28.1 | 2640 | 3740
CN(C)C(=O)c1cc(NCCCNC(=O)CCNCc2ccc(-c3ccccc3)c(Cl)c2)c2cn[nH]c2c1 [Example 62, 4-((3-(3-(((2-chloro-[1,1'-biphenyl]-4-yl)methyl)amino)propanamido)propyl)amino)-N,N-dimethyl-1H-indazole-6-carboxamide] | 182 | 14300 | 29600
COc1cc(-c2cc(NCCCNC(=O)CCNCc3ccc(-c4ccccc4)c(Cl)c3)c3cn[nH]c3c2)ccn1 [Example 22, 3-(((2-Chloro-[1,1′-biphenyl]-4-yl)methyl)amino)-N-(3-((6-(2-methoxypyridin-4-yl)-1H-indazol-4-yl)amino)propyl)propanamide] | 1.35 | 1120 | 363
N#CCc1cc(CNCCCCOC2CN(c3cc(-n4cnnc4)cc4[nH]nnc34)C2)cc(OC(F)(F)F)c1 [Example 154, 2-(3-(((4-((1-(6-(4H-1,2,4-triazol-4-yl)-1H-benzo[d][1,2,3]triazol-4-yl)azetidin-3-yl)oxy)butyl)amino)methyl)-5-(trifluoromethoxy)phenyl)acetonitrile] | 170 | 24700 | > 50000
O=C(CCNCc1ccc(-c2ccccc2)c(Cl)c1)NCCCNc1cc(-c2cc[n+]([O-])cc2)cc2[nH]ncc12 [Example 30, 4-(4-((3-(3-(((2-chloro-[1,1′-biphenyl]-4-yl)methyl)amino)propanamido)propyl)amino)-1H-indazol-6-yl)pyridine 1-oxide] | 0.99 | 2560 | 816
c1cc(-c2cc(NCCOCCCCNCc3cc4cc(OC5CCC5)ccc4[nH]3)c3cn[nH]c3c2)cnn1 [Example 57, N-(2-(4-(((5-cyclobutoxy-1H-indol-2-yl)methyl)amino)butoxy)ethyl)-6-(pyridazin-4-yl)-1H-indazol-4-amine] | 0.6 | 781 | 69.8
O=C(CCNCc1ccc(-c2ccccc2)c(Cl)c1)NCCCNc1cc(-c2ccncc2)cc2[nH]nnc12 [Example 8, 3-(((2-chloro-[1,1′-biphenyl]-4-yl)methyl)amino)-N-(3-((6-(pyridin-4-yl)-1H-benzo[d][1,2,3]triazol-4-yl)amino)propyl)propanamide] | 0.62 | 1100 | 304
O=C(CCNCc1ccc(OC2CCC2)c(CO)c1)NCCCNc1cc(-n2cnnc2)cc2[nH]ncc12 [Example 41, N-(3-((6-(4H-1,2,4-triazol-4-yl)-1H-indazol-4-yl)amino)propyl)-3-((4-cyclobutoxy-3-(hydroxymethyl)benzyl)amino)propanamide] | 0.58 | 78.1 | 7620

The next lines start with the values.

IC50 [1] [nM] | IC50 [2] [nM] | IC50 [3] [nM] | SMILES
56.2 | 1250 | 11700 | N#Cc1nncn1-c1cc(NCCCNC(=O)CCNCc2ccc(OC(F)(F)F)c(Cl)c2)c2cn[nH]c2c1 [Example 177, 3-((3-chloro-4-(trifluoromethoxy)benzyl)amino)-N-(3-((6-(3-cyano-4H-1,2,4-triazol-4-yl)-1H-indazol-4-yl)amino)propyl)propanamide]
6.53 | 807 | 402 | O=C(CCNCc1ccc(OC(F)(F)F)c(Cl)c1)NCCCNc1cc(-c2ccncc2F)cc2[nH]ncc12 [Example 162, 3-((3-chloro-4-(trifluoromethoxy)benzyl)amino)-N-(3-((6-(3-fluoropyridin-4-yl)-1H-indazol-4-yl)amino)propyl)propanamide]
12.5 | 1230 | 5880 | NC(=O)c1cc(NCCCNC(=O)CCNCc2ccc(-c3ccccc3)c(Cl)c2)c2cn[nH]c2c1 [Example 2, 4-((3-(3-(((2-chloro-[1,1′-biphenyl]-4-yl)methyl)amino)propanamido)propyl)amino)-1H-indazole-6-carboxamide]
0.78 | 30.7 | 960 | O=C(CCNCc1cc2ccc(Cl)cc2[nH]1)NCCCNc1cc(-n2cnnc2)cc2[nH]ncc12 [Example 37, N-(3-((6-(4H-1,2,4-triazol-4-yl)-1H-indazol-4-yl)amino)propyl)-3-(((6-chloro-1H-indol-2-yl)methyl)amino)propanamide]
2.02 | 667 | 193 | O=C(CCNCc1ccc(OC(F)(F)F)c(Cl)c1)NCCCNc1cc(-n2ccnn2)cc2[nH]ncc12 [Example 161, N-(3-((6-(1H-1,2,3-triazol-1-yl)-1H-indazol-4-yl)amino)propyl)-3-((3-chloro-4-(trifluoromethoxy)benzyl)amino)propanamide]
126 | 44600 | > 50000 | O=C(CCNCc1ccc(OC(F)(F)F)c(Cl)c1)NCCCNCc1cc(-n2cnnc2)cc2[nH]ncc12 [Example 172, N-(3-(((6-(4H-1,2,4-triazol-4-yl)-1H-indazol-4-yl)methyl)amino)propyl)-3-((3-chloro-4-(trifluoromethoxy)benzyl)amino)propanamide]
2.65 | 133 | 12000 | N#CCc1cccc(CNCCC(=O)NCCCNc2cc(-n3cnnc3)cc3[nH]ncc23)c1 [Example 47, N-(3-((6-(4H-1,2,4-triazol-4-yl)-1H-indazol-4-yl)amino)propyl)-3-((3-(cyanomethyl)benzyl)amino)propanamide]
